Measurements: patent US20230167073A1 (Teijin Pharma Limited, priority 2020, published 2023)

Biological target: T1, Human TRPC6 (Homo sapiens, UniProt Q9Y210)
T1 construct: expressed in transfected cells
T1 sequence (Q9Y210 1-931): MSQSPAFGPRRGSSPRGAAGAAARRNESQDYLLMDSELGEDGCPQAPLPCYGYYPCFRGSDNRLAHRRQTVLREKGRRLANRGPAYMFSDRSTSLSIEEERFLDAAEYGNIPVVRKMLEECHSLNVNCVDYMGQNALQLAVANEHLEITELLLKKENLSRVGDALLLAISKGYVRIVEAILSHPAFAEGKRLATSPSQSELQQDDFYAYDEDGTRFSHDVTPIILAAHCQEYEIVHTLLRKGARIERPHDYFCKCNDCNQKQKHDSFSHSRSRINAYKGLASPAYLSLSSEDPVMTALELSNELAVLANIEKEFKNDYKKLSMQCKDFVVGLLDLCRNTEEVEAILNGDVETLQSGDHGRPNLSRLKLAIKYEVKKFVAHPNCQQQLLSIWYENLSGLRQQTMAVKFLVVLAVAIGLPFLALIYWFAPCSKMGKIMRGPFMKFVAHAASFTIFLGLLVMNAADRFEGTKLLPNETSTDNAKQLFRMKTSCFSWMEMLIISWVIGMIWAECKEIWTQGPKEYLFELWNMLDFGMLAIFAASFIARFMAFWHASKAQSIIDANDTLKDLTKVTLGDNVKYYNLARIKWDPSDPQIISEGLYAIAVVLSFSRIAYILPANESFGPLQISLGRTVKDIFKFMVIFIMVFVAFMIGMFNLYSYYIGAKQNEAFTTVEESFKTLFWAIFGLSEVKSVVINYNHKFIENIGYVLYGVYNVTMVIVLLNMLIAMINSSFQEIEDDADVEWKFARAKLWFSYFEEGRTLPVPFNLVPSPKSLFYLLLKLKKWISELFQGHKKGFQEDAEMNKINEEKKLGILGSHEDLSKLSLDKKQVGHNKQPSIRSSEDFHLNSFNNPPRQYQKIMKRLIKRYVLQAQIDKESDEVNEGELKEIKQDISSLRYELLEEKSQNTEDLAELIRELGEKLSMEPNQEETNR
Test: Evaluation of TRPC6 channel inhibitory activity (1), FLIPR Calcium 5 Assay Kit, OAG stimulation (Compound Nos. 1-1293)
Type: cell-based
Details: Human TRPC6 stably-expressing cells, OAG 30 μM, FLIPR Calcium 5 Assay Kit; read-out: Inhibitory activity (pIC50 class) (converted)
Outline: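 Calcium influx read by FLIPR fluorescence in cells stably expressing human TRPC6, dye-loaded 30 min. Compounds preincubated 20 min, then OAG stimulation at 30 μM final. Inhibition fitted by four-parameter logistic regression to give pIC50, reported as +/++/+++ categories.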

SMILES	IC50 [nM]
CC(C)OCc1cc(Oc2cc(C#N)ccc2-c2ccc(CCN)cn2)n(C)n1 [Compound 255, 4-[5-(2-aminoethyl)pyridin-2-yl]-3-[2-methyl-5-(propan-2-yloxymethyl)pyrazol-3-yl]oxybenzonitrile]	10 to 1000
Cc1nc(Oc2cc(C#N)ccc2-n2cc([C@@H](O)CN)cn2)cc(N2CCC(F)(F)CC2)n1 [Compound 256, 4-[4-[(1R)-2-amino-1-hydroxyethyl]pyrazol-1-yl]-3-[6-(4,4-difluoropiperidin-1-yl)-2-methylpyrimidin-4-yl]oxybenzonitrile]	10 to 1000
Cc1nc(Oc2cc(C#N)ccc2-n2cc([C@@H](O)CN)cn2)cc(N2CCCC(F)(F)C2)n1 [Compound 257, 4-[4-[(1R)-2-amino-1-hydroxyethyl]pyrazol-1-yl]-3-[6-(3,3-difluoropiperidin-1-yl)-2-methylpyrimidin-4-yl]oxybenzonitrile]	10 to 1000
Cc1cc(Oc2cc(C#N)ccc2-c2ccc(CCN)cn2)cc(-c2ccccn2)n1 [Compound 258, 4-[5-(2-aminoethyl)pyridin-2-yl]-3-(2-methyl-6-pyridin-2-ylpyridin-4-yl)oxybenzonitrile]	< 10
Cc1nc(Oc2cc(C#N)ccc2-n2cc(CCN)cn2)cc(N2CCOCC2)n1 [Compound 259, 4-[4-(2-aminoethyl)pyrazol-1-yl]-3-(2-methyl-6-morpholin-4-ylpyrimidin-4-yl)oxybenzonitrile]	10 to 1000
CCCc1cc(Oc2cc(C#N)ccc2-c2ncc(CCN)cn2)n(C)n1 [Compound 260, 4-[5-(2-aminoethyl)pyrimidin-2-yl]-3-(2-methyl-5-propylpyrazol-3-yl)oxybenzonitrile]	< 10
CC(C)c1cc(Oc2cc(C#N)ccc2-c2ncc(CCN)cn2)n(C)n1 [Compound 261, 4-[5-(2-Aminoethyl)pyrimidin-2-yl]-3-(2-methyl-5-propan-2-ylpyrazol-3-yl)oxybenzonitrile]	< 10
Cc1cc(Oc2cc(C#N)ccc2-c2ncc(CCN)cn2)cc(N2CCCC2)n1 [Compound 262, 4-[5-(2-aminoethyl)pyrimidin-2-yl]-3-(2-methyl-6-pyrrolidin-1-ylpyridin-4-yl)oxybenzonitrile]	< 10
Cc1nc(Oc2cc(C#N)ccc2-c2cnc(C(O)CN)s2)cc(-c2ccccc2)n1 (centres unmarked) [Compound 263, 4-[2-(2-amino-1-hydroxyethyl)-1,3-thiazol-5-yl]-3-(2-methyl-6-phenylpyrimidin-4-yl)oxybenzonitrile]	10 to 1000
Cn1nc(C(F)(F)F)cc1Oc1cc(C#N)ccc1-c1ccc(CCN)cn1 [Compound 264, 4-[5-(2-aminoethyl)pyridin-2-yl]-3-[2-methyl-5-(trifluoromethyl)pyrazol-3-yl]oxybenzonitrile]	< 10
Cc1nc(Oc2cc(C#N)ccc2-n2cc([C@@H](O)CN)cn2)cc(OC2CCCC2)n1 [Compound 265, 4-[4-[(1R)-2-amino-1-hydroxyethyl]pyrazol-1-yl]-3-(6-cyclopentyloxy-2-methylpyrimidin-4-yl)oxybenzonitrile]	10 to 1000
Cc1nc(Oc2cc(C#N)ccc2-n2cc([C@@H](O)CN)cn2)cc(OC2CCCCC2)n1 [Compound 266, 4-[4-[(1R)-2-amino-1-hydroxyethyl]pyrazol-1-yl]-3-(6-cyclohexyloxy-2-methylpyrimidin-4-yl)oxybenzonitrile]	< 10
Cc1nc(OCC(C)C)cc(Oc2cc(C#N)ccc2-n2cc([C@@H](O)CN)cn2)n1 [Compound 267, 4-[4-[(1R)-2-amino-1-hydroxyethyl]pyrazol-1-yl]-3-[2-methyl-6-(2-methylpropoxy)pyrimidin-4-yl]oxybenzonitrile]	< 10
Cc1nc(OCC(F)(F)F)cc(Oc2cc(C#N)ccc2-n2cc([C@@H](O)CN)cn2)n1 [Compound 268, 4-[4-[(1R)-2-amino-1-hydroxyethyl]pyrazol-1-yl]-3-[2-methyl-6-(2,2,2-trifluoroethoxy)pyrimidin-4-yl]oxybenzonitrile]	10 to 1000
